{
  "source": "patent US20180221306A1",
  "about": "“PHARMACEUTICAL COMPOSITIONS OF 5-HYDROXY-2-METHYLNAPHTHALENE-1,4-DIONE” (PellFiCure Pharmaceuticals, Inc., priority 2016, published 2018)",
  "key": {"[1]": {"experiment": "Water uptake of Compound I (Karl Fischer coulometric analysis)", "assay_type": "physicochemical", "method": "For the purposes of establishing material handling practices, Compound I was evaluated for water uptake in various controlled conditions. Compound I was exposed to 25° C./60% relative humidity and 40° C./75% relative humidity for up to one day. Approximately 200 mg of Compound I was accurately weighed into separate glass vials and placed uncapped in stability chambers. At various time points, the vials were removed, stoppered and crimped, and the water content for Compound I powder was determined by standard Karl Fischer coulometric analysis."}, "[2]": {"experiment": "Single-dose maximum tolerated dose (MTD) study", "assay_type": "in vivo, rat", "settings": "both sexes, Sprague Dawley, rat, in vivo; rats, oral gavage, Compound I in Carrier A", "method": "(§1) A single-dose maximum tolerated dose (MTD) phase A study and a 7-day dose range-finding (DRF) phase B study were conducted in Sprague Dawley rats by MPI Research, Inc. (Mattawan, Mich.). A total of 62 males and 62 females rats were assigned to the study, which was performed in accordance with all current regulations. Animals were housed in standard conditions and had ad libitum access to food and water. Healthy animals of each sex were randomized into treatment groups using a standard, by weight, measured value randomization procedure. Compound I was administered by oral gavage, once at each dose level in Phase A (acute), or once daily for 7 consecutive days in Phase B. Oral gavage was chosen because the oral route is the intended route of administration in humans. Animals were observed twice daily for morbidity and mortality and were euthanatized for humane reasons where appropriate. An initial starting dose of 50 mg/kg was used for Phase A. Subsequent doses were increased or decreased based on the response to the preceding dose. […] The dose levels used in Phase B were based on the MTD identified in Phase A.\n(§2) A single-dose maximum tolerated dose (MTD) study and a seven consecutive day dose-range finding study were carried out in Sprague Dawley by orally administering a formulation of Compound I in Carrier A. In the MTD phase, doses of 50, 100, 200 and 300 mg/kg were administered once to Sprague Dawley rats by oral gavage. The single-dose MTD of Compound I in rats was found at 100 mg/kg."}, "Sprague Dawley rats": {"system": "Sprague Dawley rats", "experiment": "Single-dose maximum tolerated dose (MTD) study", "assay_type": "in vivo, rat", "settings": "200 or 300 mg/kg, once, oral gavage", "method": "as §1, §2"}, "PTEN-P2 mouse cells": {"system": "PTEN-P2 mouse cells", "experiment": "Orthotopic prostate cancer survival study, PTEN-P2 cells in Fox1/Nu mice", "assay_type": "in vivo", "method": "(§3) Orthotopic injection of PTEN-P2 and TRAMP-C2 for survival studies: Mice were anaesthetized and an incision was made through the skin and peritoneum. A total of 30,000 cells were suspended in Matrigel and slowly injected into the dorsal lobe of the prostate using a 30-gauge needle. Matrigel was used to prevent the leakage of cells out of the site of injection. A Q-tip was held over the injection site for 1 min to prevent bleeding and spill after removal of the needle. The abdominal wall was closed by surgical silk sutures.\n(§4) Fox1/Nu or C57BL/6J mice were used as recipients for PTEN-P2 and TRAMP-C2 cells, respectively. Mice were surgically castrated 6 weeks later, when tumors were established, and Compound I treatment was initiated 4-5 days later. The number of days mice lived following treatment initiation was recorded for each animal. A few mice were found dead upon daily inspection, while others were euthanized in agreement with our IACUC regulations, including mice showing weight losses of more than 15% and mice showing signs of pain though posture and lack of grooming were euthanized.\nAn orthotopic model of prostate cancer in which 30,000 PTEN-P2 mouse cells were injected into the prostate of Fox1/Nu mice was used. Mice were castrated 5 weeks after the PTEN-P2 mouse cells were injected into the prostate, which allowed the tumors to become established. […] The number of days mice lived following treatment initiation was recorded for each animal."}, "TRAMP-C2 tumor cells": {"system": "TRAMP-C2 tumor cells", "experiment": "Orthotopic prostate cancer survival study, TRAMP-C2 cells in C57BL/6 mice", "assay_type": "in vivo, mouse", "settings": "1 mg/kg per oral plus castration; p<0.001", "method": "as §3, §4\nA second study, shown in FIG. 6, used cells derived from the transgenic adenocarcinoma of the mouse prostate (TRAMP) model. The TRAMP model was generated through prostate-specific expression of the large T antigen of SV40 in the prostate epithelium. […]"}, "[3]": {"settings": "5 mg/g"}, "rat": {"system": "rat", "settings": "suspension in 0.5% of gum acacia in water or in propylene glycol, oral; cited from earlier work"}},
  "note": "Where two headings read alike, the source gives them in different places. Marks after values point to notes of the source that are not given here.",
  "data": [
    {"smiles": "CC1=CC(=O)c2c(O)cccc2C1=O", "note": "[Compound I, 5-hydroxy-2-methylnaphthalene-1,4-dione]", "values": [
      {"measurement": "Water content", "setting": "[1]; 25° C./60% RH, 0 hours", "result": 0.023, "unit": "%"},
      {"measurement": "Water content", "setting": "[1]; 25° C./60% RH, 5 hours", "result": 0.026, "unit": "%"},
      {"measurement": "Water content", "setting": "[1]; 25° C./60% RH, 24 hours", "result": 0.029, "unit": "%"},
      {"measurement": "Water content of Compound I powder (in words)", "setting": "[1]; 25° C./60% and 40° C./75% relative humidity, up to one day", "result": "anhydrous"},
      {"measurement": "Water content", "setting": "[1]; 40° C./75% RH, 0 hours", "result": 0.023, "unit": "%"},
      {"measurement": "Water content", "setting": "[1]; 40° C./75% RH, 5 hours", "result": 0.027, "unit": "%"},
      {"measurement": "Water content", "setting": "[1]; 40° C./75% RH, 24 hours", "result": 0.031, "unit": "%"},
      {"measurement": "Sensitivity to water uptake", "setting": "[1]; at up to 75% relative humidity", "result": "not sensitive to water uptake"},
      {"measurement": "MTD", "setting": "[2]", "result": 100, "unit": "mg/kg"},
      {"measurement": "Adverse clinical events", "setting": "Sprague Dawley rats", "result": "decreased activity, abnormal body carriage and piloerection"},
      {"measurement": "Mortality after acute administration", "setting": "Sprague Dawley rats", "result": "unscheduled deaths in male rats on Days 1 and 2 but not in females"},
      {"measurement": "Survival, combination with castration vs castration alone", "setting": "PTEN-P2 mouse cells; oral 1 mg/kg/day in Carrier A plus castration, p=0.01", "result": "survived significantly longer"},
      {"measurement": "Survival, Compound I alone vs castration alone", "setting": "PTEN-P2 mouse cells; oral 1 mg/kg/day in Carrier A, p=0.118", "result": "not statistically different"},
      {"measurement": "Survival, combination with castration vs untreated control", "setting": "PTEN-P2 mouse cells; oral formulation plus castration, p=0.042", "result": "survived longer"},
      {"measurement": "Survival, Compound I alone vs untreated control", "setting": "PTEN-P2 mouse cells; p=0.296", "result": "not statistically different"},
      {"measurement": "Longer survival of 50% of the combination-treated mice vs castration alone", "setting": "TRAMP-C2 tumor cells", "result": 200, "unit": "days"},
      {"measurement": "Solution Stability in Aqueous Media, % Potency", "setting": "[3]; 0 week", "result": 92.86, "unit": "%"},
      {"measurement": "Solution Stability in Aqueous Media, % Potency", "setting": "[3]; 0 week, pH 1", "result": 99.62, "unit": "%"},
      {"measurement": "Solution Stability in Aqueous Media, % Potency", "setting": "[3]; 0 week, pH 2", "result": 98.23, "unit": "%"},
      {"measurement": "Solution Stability in Aqueous Media, % Potency", "setting": "[3]; 0 week, pH 3", "result": 96.53, "unit": "%"},
      {"measurement": "Solution Stability in Aqueous Media, % Potency", "setting": "[3]; 0 week, pH 4", "result": 96.76, "unit": "%"},
      {"measurement": "Solution Stability in Aqueous Media, % Potency", "setting": "[3]; 0 week, pH 5", "result": 97.34, "unit": "%"},
      {"measurement": "Solution Stability in Aqueous Media, % Potency", "setting": "[3]; 0 week, pH 6", "result": 94.27, "unit": "%"},
      {"measurement": "Solution Stability in Aqueous Media, % Potency", "setting": "[3]; 0 week, pH 7", "result": 87.84, "unit": "%"},
      {"measurement": "Solution Stability in Aqueous Media, % Potency", "setting": "[3]; 0 week, pH 8", "result": 78.28, "unit": "%"},
      {"measurement": "Solution Stability in Aqueous Media, % Potency", "setting": "[3]; 0 week, pH 9", "result": 85.90, "unit": "%"},
      {"measurement": "Solution Stability in Aqueous Media, % Potency", "setting": "[3]; 0 week, pH 10", "result": 86.55, "unit": "%"},
      {"measurement": "Solution Stability in Aqueous Media, % Potency", "setting": "[3]; 1 week, pH 7", "result": "<10", "unit": "%"},
      {"measurement": "Solution Stability in Aqueous Media, % Potency", "setting": "[3]; 1 week, pH 8", "result": "<10", "unit": "%"},
      {"measurement": "Solution Stability in Aqueous Media, % Potency", "setting": "[3]; 2 week, pH 7", "result": "<10^‡ %"},
      {"measurement": "Solution Stability in Aqueous Media, % Potency", "setting": "[3]; 2 week, pH 8", "result": "<10^‡ %"},
      {"measurement": "Solution Stability in Aqueous Media, % Potency", "setting": "[3]; 2 week, pH 9", "result": "<10^‡ %"},
      {"measurement": "Solution Stability in Aqueous Media, % Potency", "setting": "[3]; 2 week, pH 10", "result": "<10^‡ %"},
      {"measurement": "Initial Compound I remaining in the solution", "setting": "[3]; buffer, 168 h, pH 7", "result": "less than 10%"},
      {"measurement": "LD50", "setting": "rat", "result": 65, "unit": "mg/kg"}
    ]}
  ]
}
